≈ marks a conversion by molar mass, not a printed value. Like-named read-outs stand apart in the source and are kept apart here.
Legend:
human wildtype CFTR = human wildtype CFTR (Homo sapiens, UniProt P13569); experiment: Fluorescence cell-based assay of CFTR inhibition (YFP iodide influx, FRT cells); parameters: expressed in transfected cells; host or cells: Fisher rat thyroid (FRT) cells; settings: given as ranges, read-out: IC50
Experimental: CFTR inhibition by thiazolidinone derivative compounds was determined by a fluorescence cell-based assay utilizing doubly transfected cells expressing human wild-type CFTR and a yellow fluorescent protein (YFP) iodide sensor, as described (see, e.g., Galietta, et al., J. Physiol. 281:C1734-C1742 (2001)). Fisher rat thyroid (FRT) cells stably expressing wild-type human CFTR and YFP-H148Q were cultured on 96-well black-wall plates as described (see, e.g., Ma, et al., J. Clin. Invest. 110:1651-1658 (2002)). Cells in 96-well plates were washed three times, and then CFTR was activated by incubation for 15 minutes with an activating cocktail containing 10 μM forskolin, 20 μM apigenin, and 100 μM IBMX. Test compounds were added 5 minutes before assay of iodide influx in which cells were exposed to a 100 mM inwardly directed iodide gradient. YFP fluorescence was recorded for 2 seconds before and 12 seconds after creation of the iodide gradient. Initial rates of iodide influx were computed from the time course of decreasing fluorescence after the iodide gradient.
CFTR-facilitated iodide influx following extracellular iodide addition results in quenching of cytoplasmic YFP fluorescence.

[1] = Solubility measurements in saline (PBS, LC/MS); format: physicochemical
Experimental: Solubility measurements. A saturated compound solution was prepared by addition of DMSO stock to phosphate buffered saline (final DMSO 2%) followed by sonication for 5 min at 25° C. and shaking at room temperature for 1 h. After centrifugation at 15,000 rpm for 1 h, the supernatant was analyzed by LC/MS with concentration determined from area under the curve, standardized against calibration data. A standard curve for each compound was obtained by plotting area under the curve from chromatograms against inhibitor concentration. The concentration range of the standard solutions was 1-15 μM (for 5) and 1-100 μM (other compounds). In all cases, standard curves prepared were linear with r>0.998.
A saturated drug solution of a compound was prepared by addition of the compound in DMSO to phosphate buffered saline (PBS), followed by sonication for 5 min at 25° C. Final concentration of DMSO was <2%. Each saturated solution was centrifuged and filtered. The saturated supernatant solution was diluted and injected into LC/MS. The concentration was determined from area under the curve using a calibration curve.

FRT cells = experiment: Cytotoxicity measurements, crystal violet staining of FRT cells; format: cell-based, rat; settings: 48 h
Experimental: Cytotoxicity measurements. FRT cells in confluent monolayers were incubated with compounds for 2 days. Cells were washed 3 times, fixed (cytofix, 30 min) and stained with crystal violet (100 μl, 0.5%, 10 min) using standard procedures. Excess crystal violet was removed by washing, and dye was extracted with Sorenson's buffer (0.1 M sodium citrate, 50% ethanol, pH 4.2). Crystal violet was quantified by measurement of absorbance at 650 nm. The percentage crystal violet staining was determined from test wells measured 8 times, compared to blanks (wells not containing cells) and vehicle-treated cells.
Cytotoxicity analysis was performed for Tetrazolo-172, Oxo-172, α-Me-172 and Pyridine-NO-172 (Compound 17) and compared with CFTRinh-172 (Table 3). […] Crystal violet staining was reduced for Tetrazolo-172 and α-Me-172 at 50 μM.

human wildtype CFTR, sequence (P13569 whole entry): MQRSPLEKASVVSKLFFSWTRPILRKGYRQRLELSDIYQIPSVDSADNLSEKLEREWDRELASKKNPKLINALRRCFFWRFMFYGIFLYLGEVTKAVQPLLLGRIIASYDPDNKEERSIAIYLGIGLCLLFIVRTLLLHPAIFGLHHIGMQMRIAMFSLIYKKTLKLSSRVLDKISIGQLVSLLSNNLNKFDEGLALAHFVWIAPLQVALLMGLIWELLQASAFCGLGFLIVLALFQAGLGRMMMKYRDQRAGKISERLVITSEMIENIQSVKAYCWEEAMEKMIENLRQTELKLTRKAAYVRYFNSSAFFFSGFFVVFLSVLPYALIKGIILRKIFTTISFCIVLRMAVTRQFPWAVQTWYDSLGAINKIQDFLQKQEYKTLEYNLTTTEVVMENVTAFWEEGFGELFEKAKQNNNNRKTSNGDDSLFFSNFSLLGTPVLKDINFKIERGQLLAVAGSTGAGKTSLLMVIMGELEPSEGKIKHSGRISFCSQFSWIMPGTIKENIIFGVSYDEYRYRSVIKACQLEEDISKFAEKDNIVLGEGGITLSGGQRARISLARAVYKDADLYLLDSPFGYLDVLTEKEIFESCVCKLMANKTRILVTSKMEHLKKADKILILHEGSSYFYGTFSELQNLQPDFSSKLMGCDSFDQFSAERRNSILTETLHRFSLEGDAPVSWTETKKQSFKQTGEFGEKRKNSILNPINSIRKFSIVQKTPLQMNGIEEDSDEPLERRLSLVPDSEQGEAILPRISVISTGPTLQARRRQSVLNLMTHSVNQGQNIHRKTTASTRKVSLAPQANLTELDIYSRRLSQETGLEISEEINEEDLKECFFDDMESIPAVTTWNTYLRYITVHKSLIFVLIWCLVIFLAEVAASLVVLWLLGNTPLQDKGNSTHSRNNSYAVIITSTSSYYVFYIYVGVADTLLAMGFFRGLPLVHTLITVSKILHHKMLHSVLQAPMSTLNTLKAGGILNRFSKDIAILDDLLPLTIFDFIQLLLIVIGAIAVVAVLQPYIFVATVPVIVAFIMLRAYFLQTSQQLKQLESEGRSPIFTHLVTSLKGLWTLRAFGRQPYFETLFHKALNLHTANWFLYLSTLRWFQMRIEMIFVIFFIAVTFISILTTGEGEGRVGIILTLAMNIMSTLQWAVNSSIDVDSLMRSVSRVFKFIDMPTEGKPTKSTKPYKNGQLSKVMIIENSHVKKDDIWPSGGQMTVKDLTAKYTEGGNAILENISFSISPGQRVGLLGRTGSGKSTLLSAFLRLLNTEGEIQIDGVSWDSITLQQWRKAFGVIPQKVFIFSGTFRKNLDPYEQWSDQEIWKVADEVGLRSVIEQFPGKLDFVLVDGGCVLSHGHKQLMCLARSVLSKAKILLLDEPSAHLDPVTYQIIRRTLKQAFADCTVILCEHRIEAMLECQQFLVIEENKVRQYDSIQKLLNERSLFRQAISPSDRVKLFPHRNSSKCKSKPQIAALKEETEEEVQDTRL

Structure (SMILES): O=C1/C(=C/c2ccc(-c3nn[nH]n3)cc2)SC(=S)N1c1cccc(C(F)(F)F)c1 [Compound 6, (Z)-5-(4-(1H-tetrazol-5-yl)benzylidene)-2-thioxo-3-(3-(trifluoromethyl)phenyl)thiazolidin-4-one]
- IC50 (human wildtype CFTR; Table 1, upper part, CFTR inhibitory activity): 100 to 1000 nM
- IC50 (human wildtype CFTR; Table 2 summary table): 100 to 1000 nM
- increase of solubility in saline/water relative to CFTRinh-172 [1]: 11 fold
- Solubility in saline ([1]; Table 3, PBS, DMSO <2%): 189 µM (≈ 81.9 µg/mL)
- % Cell viability 20 μM (FRT cells; 20 μM, crystal violet staining): 87%
- Crystal violet staining at 50 μM (in words) (FRT cells; 50 μM): reduced
- % Cell viability 50 μM (FRT cells; 50 μM, crystal violet staining): 73%
